According to US12653800B2, “Small molecule inhibitors of TLR2 signaling” (University of Maryland, Baltimore, priority 2015, dated 2026):

Columns and labels:
[1] = Solubility in water; assay type: physicochemical; conditions: compared with C29
[2] = test system: MAPK and NF-κβ activation; assay: Western analysis of MAPK and NF-κβ activation in murine peritoneal macrophages; assay type: cell-based; conditions: C29 50 μM, P3C 50 ng/mL
Experimental: FIG. 2. C29 inhibits ligand-induced interaction of TLR2 with MyD88 and blocks MAPK and NF-κβ activation. (A) THP-1 cells were cultured in the presence of PMA (20 ng/mL) for 24 hrs and washed twice in media. THP-1 human monocytes were pretreated with media, vehicle (195 μM NaOH), or C29 (150 μM) for 1 hr and treated with P3C (50 ng/mL) in the presence of media, vehicle, or C29 for 15 or 30 min. Co-immunoprecipitation (IP) was carried out using anti-MyD88 antibody and Western analysis (IB) using whole cell lysates. (B) Densitometry analysis (mean±SEM) of 3 independent experiments as shown in (A). (C) Murine peritoneal macrophages were pretreated for 1 hr with media, vehicle (65 μM NaOH), or C29 (50 μM) and treated with P3C (50 ng/mL) for 5-30 min in the presence of media, vehicle, or C29. IB was performed using whole cell lysates and antibodies directed against the signaling intermediates indicated. β-actin was probed as a loading protein. Panel A is representative of 3 independent experiments and panel B is the mean±SEM from 3 independent experiments (*, p≤0.05). Panel B is representative of 2 independent experiments.
Cells were treated and washed once with 1×PBS and lysed using buffer containing 20 mM HEPES (pH 7.4), 150 mM NaCl, 1 mM EDTA, 1 mM EGTA (pH 8.0), 50 mM NaF, 0.5% Triton X-100, 1 mM Na3VO4, 1 mM DTT, 1 mM PMSF, and protease inhibitor (Roche Applied Science, Indianapolis, IN). Cells were harvested and protein was quantified using BCA Protein assay reagents (Thermo Scientific/Pierce, Rockford, IL). Whole cell lysates (500 μg/500 μL) were precleared using 10 μL of pre-washed Protein G Agarose (Roche Applied Science, Indianapolis, IN) for 2 hours at 4° C. with rotation. Precleared samples were incubated with the respective antibody and rotated overnight at 4° C. Pre-washed Protein G (40 μL) was added to each sample and rotated for 4 h at 4° C. Beads were washed three times in lysis buffer (without protease inhibitor) and finally in complete lysis buffer. Beads were resuspended in 2× Laemmli Sample Buffer and boiled for 10 min. […]

[3] = Thin layer chromatography of C29 in NaOH or organic solvent (imine cleavage); assay type: physicochemical
Experimental: FIG. 11. C29 L reproduces the TLR2 inhibitory activity observed with C29. (A) C29 dissolved in NaOH generates ortho-vanillin (“C29L”) and 3-amino-2-methylbenzoic acid (“C29R”). (B) TLC plate coated with silica was spotted with C29 dissolved in 65 μM NaOH, C29 dissolved in ethyl acetate (organic solvent), and a mixture of both. The plate was placed in solvent and visualized using a KMnO4 stain. (C, D) Total RNA was extracted from murine peritoneal macrophages that had been pretreated for 1 hr with vehicle (65 μM NaOH), C29 (25 μM or 50 μM), C29L (25 μM or 50 μM), or C29R (25 μM or 50 μM) and then stimulated with P3C (50 ng/mL), P2C (100 ng/mL), or LPS (100 ng/mL) for 1 hr in the presence of vehicle, C29, C29L, or C29R. TNF-α mRNA was measured as described in FIG. 1, panel D. Quantitative real-time results are representative of 2 independent experiments each carried out in duplicate (*, p≤0.05; **, p≤0.01; ***, p≤0.001; ****, p≤0.0001).
To preclude cytotoxicity from DMSO, C29 was dissolved in 65 μM NaOH in H2O. […] The two cleavage products, C29L and C29R, were tested to determine if either would reproduce the TLR2 inhibitory activity of C29.

COc1cccc(C=O)c1O [Compound C29L, ortho-vanillin]
solubility in water [1]: more soluble in water than C29

COc1cccc(/C=N/c2cccc(C(=O)O)c2C)c1O [Compound C29]
P3C-induced NF-κβ activation ([2]; 5 to 30 min): reduced NF-κβ activation | P3C-induced degradation of IκBα ([2]; 15 and 30 min): prevented P3C-induced degradation of IκBα | P3C-induced MAPK activation ([2]; 30 min): blocked robust MAPK activation | stability of imine linkage (TLC) ([3]; dissolved in 65 μM NaOH in H2O): cleaved into these two species | stability of imine linkage (TLC) ([3]; dissolved in an organic solvent (ethyl acetate)): not when dissolved in an organic solvent
